Experimental data published in US8772323B2, “Benzoxazole- and tetrahydrobenzoxazole-substituted pyridazinones as GPR119 agonists” (Boehringer Ingelheim International GmbH, priority 2010, dated 2014).

Molecular target: human GPR119 (Homo sapiens (Human), UniProt Q8TDV5)
Assay: AlphaScreen cAMP assay in Min-6/hGPR119 cells (GPR119 activation, intracellular cAMP)
Type: cell-based
Conditions: MIN6 cells stably transfected with human GPR119; 45 minutes' incubation at RT; AlphaScreen cAMP Assay Kit
Method: The compounds of formula I according to the invention are GPR119 agonists. The effect of the compounds on the activation of GPR119 and on the stimulation of intracellular cAMP concentration is determined using the AlphaScreen cAMP Assay Kit (Cat. No. #6760625R) made by PerkinElmer.
MIN6 cells [Miyazaki J et al. Endocrinology. 1990 July; 127(1):126-32] were stably transfected with an expression vector for human GPR119 cDNA (Acc. No. NP_848566). Min-6/hGPR119 cells are cultured in DMEM, 10% FBS, 50 μM β-mercaptoethanol, 0.3 mg/mL Geniticin, 2 mM GlutaMAX at 37° C. 5% CO2. For the assay, the cells are placed in Optiplates (white, 384-well, 160W-barcoded, TC, sterile with lid, Cat. No. #6007688 (Perkin Elmer); 10000 cells/well; 50 μl). The plates covered with lids are then incubated for 24 hours at 37° C./5% CO2.
After the medium has been sucked out of the wells completely, 10 μl of the test compound are added, the compounds are diluted beforehand with stimulating buffer (140 mM NaCl, 3.6 mM KCl, 0.5 mM NaH2PO4, 0.5 mM MgSO4, 1.5 mM CaCl2, 10 mM Hepes, 5 mM NaHCO3; pH 7.4. 0.5 mM IBMX and 0.1% BSA, the final DMSO concentration is 1%). After 45 minutes' incubation at RT, the cAMP concentrations are determined using the AlphaScreen cAMP Assay Kit (Cat. No. #6760625R from PerkinElmer).

Sequence of human GPR119 (Q8TDV5 whole entry): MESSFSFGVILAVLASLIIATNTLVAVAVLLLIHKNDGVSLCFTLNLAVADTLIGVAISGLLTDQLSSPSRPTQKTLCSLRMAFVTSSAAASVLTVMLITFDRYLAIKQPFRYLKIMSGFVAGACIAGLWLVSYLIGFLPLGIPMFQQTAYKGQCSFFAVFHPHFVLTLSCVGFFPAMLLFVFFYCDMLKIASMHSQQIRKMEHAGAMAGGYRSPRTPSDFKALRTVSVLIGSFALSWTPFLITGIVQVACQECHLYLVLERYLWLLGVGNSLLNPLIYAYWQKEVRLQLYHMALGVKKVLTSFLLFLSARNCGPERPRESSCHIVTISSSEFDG

SMILES	EC50 [nM]
CC[C@H]1CC(=O)NN=C1c1ccc2nc(-c3ccc(OCC(C)N4CCCCC4)cc3)oc2c1 (stereo partly drawn) [Example 236, 5(S)-ethyl-6-{2-[4-(2-piperidin-1-yl-propoxy)-phenyl]-benzoxazol-6-yl}-4,5-dihydro-2H-pyridazin-3-one]	1100
O=C1CC(C2CC2)C(N2CCc3nc(-c4ccccc4)oc3C2)=NN1 (stereo not drawn) [Example 138, 5-cyclopropyl-6-(2-phenyl-6,7-dihydro-4H-oxazolo[5,4-c]pyridin-5-yl)-4,5-dihydro-2H-pyridazin-3-one]	1310
Cc1ccc(-c2nc3ccc(C4=NNC(=O)C5CC45)cc3o2)cc1C (stereo not drawn) [Example 14, 5-[2-(3,4-dimethyl-phenyl)-benzoxazol-6-yl]-3,4-diaza-bicyclo[4.1.0]hept-4-en-2-one]	264
Cc1cc(=O)[nH]nc1-c1ccc2nc(-c3ccc(C(=O)O)cc3)oc2c1 [Example 255, 4-[6-(4-methyl-6-oxo-1,6-dihydro-pyridazin-3-yl)-benzoxazol-2-yl]-benzoic acid]	7240
CCC1CC(=O)NN=C1c1ccc2nc(-c3ccc(OC4CCOCC4)cc3)oc2c1 (stereo not drawn) [Example 105, 5-ethyl-6-{2-[4-(tetrahydro-pyran-4-yloxy)-phenyl]-benzoxazol-6-yl}-4,5-dihydro-2H-pyridazin-3-one]	80
C[C@H]1CC(=O)NN=C1c1ccc2nc(-c3ccccc3)oc2c1 [Example 1, (S)-5-methyl-6-(2-phenyl-benzoxazol-6-yl)-4,5-dihydro-2H-pyridazin-3-one]	660
CCC1CC(=O)NN=C1c1ccc2nc(-c3ccc(OCC(=O)O)cc3)oc2c1 (stereo not drawn) [Example 70, 4-[6-(4-ethyl-6-oxo-1,4,5,6-tetrahydro-pyridazin-3-yl)-benzoxazol-2-yl]-phenoxy-acetic acid]	3910
CCC1CC(=O)NN=C1c1ccc2nc(-c3ccc(OCCN(CC(C)C)CC(C)C)cc3)oc2c1 (stereo not drawn) [Example 160, 6-{2-[4-(2-diisobulylamino-ethoxy)-phenyl]-benzoxazol-6-yl}-5-ethyl-4,5-dihydro-2H-pyridazin-3-one]	124
CCC1CC(=O)NN=C1c1ccc2nc(-c3ccc(OCCN4C(C)(C)CCCC4(C)C)cc3)oc2c1 (stereo not drawn) [Example 58, 5-ethyl-6-(2-{4-[2-(2,2,6,6-tetramethyl-piperidin-1-yl)-ethoxy]-phenyl}-benzoxazol-6-yl)-4,5-dihydro-2H-pyridazin-3-one]	76
CCC1CC(=O)NN=C1c1ccc2nc(-c3ccc(OCc4ncccn4)cc3)oc2c1 (stereo not drawn) [Example 40, 5-ethyl-6-{2-[4-(pyrimidin-2-ylmethoxy)-phenyl]-benzoxazol-6-yl}-4,5-dihydro-2H-pyridazin-3-one]	275
CCC1CC(=O)NN=C1c1ccc2nc(-c3ccc(C(C)OC)cc3)oc2c1 (stereo not drawn) [Example 180, 5-ethyl-6-{2-[4-(1-methoxy-ethyl)-phenyl]-benzoxazol-6-yl}-4,5-dihydro-2H-pyridazin-3-one]	290
CCC1CC(=O)NN=C1c1ccc2nc(-c3ccc(OC[C@@H]4CCCN4C(=O)OC(C)(C)C)cc3)oc2c1 (stereo partly drawn) [Example 226]	47
C[C@@H]1CC(c2ccc3nc(-c4ccccc4)oc3c2)=NNC1=O [Example 4, (R)-4-methyl-6-(2-phenyl-benzoxazol-6-yl)-4,5-dihydro-2H-pyridazin-3-one]	596
CCC1SC(=O)NN=C1c1ccc2nc(-c3ccccc3)oc2c1 (stereo not drawn) [Example 77, 6-ethyl-5-(2-phenyl-benzoxazol-6-yl)-3,6-dihydro-[1,3,4]thiadiazin-2-one]	141
CCC1CC(=O)NN=C1c1ccc2nc(-c3ccc(OC[C@H]4CCCN4C(=O)OC(C)(C)C)cc3)oc2c1 (stereo partly drawn) [Example 227]	52
Cc1cc(C2=NNC(=O)C3CC23)cc2oc(-c3ccccc3)nc12 (stereo not drawn) [Example 11, 5-(4-methyl-2-phenyl-benzoxazol-6-yl)-3,4-diaza-bicyclo[4.1.0]hept-4-en-2-one]	> 10000
O=C1NN=C(c2ccc3nc(-c4ccc(OCCN5CCOCC5)cc4)oc3c2)C2CC12 (stereo not drawn) [Example 137, 5-{2-[4-(2-morpholin-4-yl-ethoxy)-phenyl]-benzoxazol-6-yl}-3,4-diaza-bicyclo[4.1.0]hept-4-en-2-one]	497
CCC1CC(=O)NN=C1c1ccc2nc(-c3ccc(OCC4CCN(C(=O)OC(C)(C)C)CC4)cc3)oc2c1 (stereo not drawn) [Example 67, tert-butyl 4-{4-[6-(4-ethyl-6-oxo-1,4,5,6-tetrahydro-pyridazin-3-yl)-benzoxazol-2-yl]-phenoxymethyl}-piperidine-1-carboxylate]	51
CCC[C@@H]1C(=O)NN=C(c2ccc3nc(-c4ccc(O)cc4)oc3c2)[C@H]1C [Example 203]	962
O=C1CCC(c2ccc3nc(N4CCCCC4)oc3c2)=NN1 [Example 118, 6-(2-piperidin-1-yl-benzoxazol-6-yl)-4,5-dihydro-2H-pyridazin-3-one]	3740
CCC1CC(=O)NN=C1c1ccc2nc(-c3cccc(OCCN4CCN(C(C)CC)CC4)c3)oc2c1 (stereo not drawn) [Example 157, 6-(2-{3-[2-(4-sec-butyl-piperazin-1-yl)-ethoxy]-phenyl}-benzoxazol-6-yl)-5-ethyl-4,5-dihydro-2H-pyridazin-3-one]	2030
CC1CC(=O)NN=C1c1ccc2nc(-c3ccc(C#N)cc3)oc2c1 (stereo not drawn) [Example 122, 4-[6-(4-methyl-6-oxo-1,4,5,6-tetrahydro-pyridazin-3-yl)-benzoxazol-2-yl]-benzonitrile]	4000
C[C@H]1CC(c2ccc3nc(-c4ccccc4)oc3c2)=NNC1=O [Example 2, (S)-4-methyl-6-(2-phenyl-benzoxazol-6-yl)-4,5-dihydro-2H-pyridazin-3-one]	787
CCC1CC(=O)NN=C1c1ccc2nc(-c3ccc(OCCN4CCSCC4)cc3)oc2c1 (stereo not drawn) [Example 247, 5-ethyl-6-{2-[4-(2-thiomorpholin-4-yl-ethoxy)-phenyl]-benzoxazol-6-yl}-4,5-dihydro-2H-pyridazin-3-one]	62
Cc1ccc(-c2nc3ccc(C4=NNC(=O)[C@@H](C)[C@H]4C)cc3o2)s1 [Example 24, (4S,5R)-4,5-dimethyl-6-[2-(5-methyl-thiophen-2-yl)-benzoxazol-6-yl]-4,5-dihydro-2H-pyridazin-3-one]	5100
CC1OC(=O)NN=C1c1ccc2nc(-c3ccccc3)oc2c1 (stereo not drawn) [Example 81, 6-methyl-5-(2-phenyl-1,3-benzoxazol-6-yl)-3,6-dihydro-2H-1,3,4-oxadiazin-2-one]	31
CCC1CC(=O)NN=C1c1ccc2nc(-c3ccc(OC(C)C)cc3)oc2c1 (stereo not drawn) [Example 99, 5-ethyl-6-[2-(4-isopropoxy-phenyl)-benzoxazol-6-yl]-4,5-dihydro-2H-pyridazin-3-one]	59
CCC[C@H]1C(=O)NN=C(c2ccc3nc(-c4ccc(OCc5ccccc5)cc4)oc3c2)[C@H]1C (relative stereo) [Example 199, cis-6-[2-(4-benzoxy-phenyl)-benzoxazol-6-yl]-5-methyl-4-propyl-4,5-dihydro-2H-pyridazin-3-one]	832
O=C1NN=C(c2ccc3nc(-c4ccccc4)oc3c2)C2CC12 (stereo not drawn) [Example 5, 5-(2-phenyl-benzoxazol-6-yl)-3,4-diaza-bicyclo[4.1.0]hept-4-en-2-one]	243
CCC1CC(=O)NN=C1c1ccc2nc(-c3ccc(OCCN4CCC(C#N)CC4)cc3)oc2c1 (stereo not drawn) [Example 163, 1-(2-{4-[6-(4-ethyl-6-oxo-1,4,5,6-tetrahydro-pyridazin-3-yl)-benzoxazol-2-yl]-phenoxy}-ethyl)-piperidin-4-carbonitrile]	97
